Experimental data reported in EP0994713B1, “USE OF A 7alpha-METHYL-17alpha-ETHYNYL-ESTRANE DERIVATIVE FOR THE TREATMENT OF ATHEROSCLEROSIS” (Akzo Nobel N.V., priority 1997, dated 1998).

Assays:
Type in all cases: in vivo, New Zealand White rabbits
[1] = tested on: female ovariectomized rabbits; assay: Overall atherosclerotic lesion formation, cholesterol fed rabbit model; conditions: Example 3: Org OD14 0.6 mg orally daily; estradiol decanoate 300 µg s.c. weekly
Method: (§1) The model is considered relevant to the human atherosclerotic process, because the cellular events occurring during the development of the atherosclerotic lesions during the atherogenic diet are similar to those observed in different stages of atherosclerotic processes in coronary arteries.
(§2) In addition to example 2 an additional experiment was performed with two lower doses of Org OD14 and a higher dose of estradiol decanoate. […] The procedures were identical to those in example 2.
(§3) Three weeks prior to the start of the experiment the animals were ovariectomized. At the start of the experiment the carotid artery was de-endothelialised using the air-drying technique. The normal rabbit chow was replaced by the atherogenic diet except for the control group which received during the experiment the normal rabbit chow.
(§4) The treatments (table II) of group 1, 2, 3 and 4 were daily administered orally as a tablet, prepared as in example 1. The doses of Org OD14 per tablet, however, were 0.6 mg and 0.15 mg respectively. Group 5 was on treatment with 17β-estradiol decanoate (300 µg in 1 ml arachis oil injected subcutaneously once a week). Twenty weeks after the start of the experiment was ended in the same manner as described in example 2.
In example 3 we tested Org OD14 at two lower doses (0.6 and 0.15 mg orally once daily) and estradiol decanoate at a higher dose (300 µg s.c. once weekly). […]

[2] = tested on: female ovariectomized rabbits; assay: Uterus weight (estrogenic activity), cholesterol fed rabbit model; conditions: for Uterus weight per 100 grams body weight: cholesterol diet, OVX, necropsy at 20 weeks
Method: as §1
An experiment was performed with 7 groups of sexually mature, virgin female New Zealand White rabbits (Harlan, Zeist, The Netherlands), age 7-9 months and weighing approximately 3 kg (number of […] per group: 13-14). During the acclimatization period the rabbits were fed a diet of standard commercial rabbit chow LKK20 (Hope Farms, Woerden, The Netherlands). Three weeks prior to the start of the experiment the animals were anaesthetized and underwent bilateral ovariectomy (OVX) or were sham operated. After three weeks, at the start of the experiment, the rabbits were randomized over the treatment groups. In all animals de-endothelialisation of a segment of the left carotid artery was applied by using the air-drying technique (Fishman, J.A. et al., "Endothelial regeneration in the rat carotid artery and the significance of endothelial denudation in the pathogenesis of myointimal thickening", Lab. Invest. 1975, 32, 339-351; and Lafont, A. et al., "Restenosis and experimental angioplasty: Intimal, medial and adventitial changes associated with constructive remodeling", Circulation Research, 1995, 76, 996-1002)
The animals were randomly allocated into 7 experimental groups using a randomized block design. The groups were fed an atherogenic diet (commercial rabbit chow (LKK20) enriched with 0.4 grams cholesterol, 3.75 grams coconut oil and 3.75 grams peanut oil per 100 grams). One group was fed the standard rabbit chow (LKK20). Food intake was restricted to 80 grams daily.
The treatments (Table I) were daily administered orally as a tablet, prepared as in Example 1. Groups 1, 2 and 3 were on a daily placebo treatment. Groups 4-5 were treated with 7α-methyl-17α-ethynyl-17β-hydroxy-estra-5(10)-en-3-one (OD-14; tibolone; 6 or 2 mg daily); group 6 with 17β-estradiol (4 mg daily). Group 7 was on treatment with 17β-estradiol decanoate (150 µg in 1 ml arachis oil injected subcutaneously once a week).
(§5) During the experiment blood samples were drawn out of the central ear artery after sedation with Hypnorm (0.1 ml i.m.) (Janssen Pharmaceutics, Beerse, Belgium) before the daily treatment, at week 4,8,12,16 and 20, to monitor the plasma cholesterol levels and to measure, at week 17, plasma estradiol levels and plasma tibolone levels. Twenty weeks after the start of the experiment animals were anaesthetized by an i.m. injection of Hypnorm (0.5 ml/kg). After blood sampling the rabbits were killed by exsanguination and the aortic arch, uterus and carotid artery removed for further analyses.
as §2, §3, §4
After 20 weeks of diet and of daily treatment, necropsy was performed to determine the accumulation of cholesterol and fatty streaks in the aortic arch and the advanced lesions in the carotid artery. […]

[3] = tested on: female ovariectomized rabbits; assay: Plasma cholesterol levels, cholesterol fed rabbit model; conditions: for Mean plasma cholesterol exposure: cholesterol diet, OVX, 20 weeks
Method: as §1
An experiment was performed with 7 groups of sexually mature, virgin female New Zealand White rabbits (Harlan, Zeist, The Netherlands), age 7-9 months and weighing approximately 3 kg (number of […] per group: 13-14). During the acclimatization period the rabbits were fed a diet of standard commercial rabbit chow LKK20 (Hope Farms, Woerden, The Netherlands). Three weeks prior to the start of the experiment the animals were anaesthetized and underwent bilateral ovariectomy (OVX) or were sham operated. After three weeks, at the start of the experiment, the rabbits were randomized over the treatment groups.
The animals were randomly allocated into 7 experimental groups using a randomized block design. […] One group was fed the standard rabbit chow (LKK20). Food intake was restricted to 80 grams daily.
Groups 1, 2 and 3 were on a daily placebo treatment. Groups 4-5 were treated with 7α-methyl-17α-ethynyl-17β-hydroxy-estra-5(10)-en-3-one (OD-14; tibolone; 6 or 2 mg daily); group 6 with 17β-estradiol (4 mg daily). Group 7 was on treatment with 17β-estradiol decanoate (150 µg in 1 ml arachis oil injected subcutaneously once a week).
as §5, §3
Group 5 was on treatment with 17β-estradiol decanoate (300 µg in 1 ml arachis oil injected subcutaneously once a week).

[4] = Example 2, Group 4: 6 mg orally daily
[5] = Example 2, Group 5: 2 mg orally daily
[6] = Example 3: 0.15 mg orally once daily
[7] = Example 3: 0.6 mg orally once daily

C#C[C@]1(O)CC[C@H]2[C@@H]3[C@H](C)CC4=C(CCC(=O)C4)[C@H]3CC[C@@]21C [Org OD14, 7α-methyl-17α-ethynyl-17β-hydroxy-estra-5(10)-en-3-one]
atherosclerotic lesion formation (in words) [1]: still nearly completely prevented
Uterus weight per 100 grams body weight [2, 4]: 0.24 ±0.06 per 100 grams body weight
Uterus weight per 100 grams body weight [2, 5]: 0.29 ±0.03 per 100 grams body weight
uterus weight increase (estrogenic activity, in words) ([2]; Example 2: Org OD14 2 and 6 mg per day): to a similar extent as both estradiol treatments
increase of uterus weight ([2]; Example 3, text: Org OD14 (0.15 mg dose per Table IV), versus placebo 0.054): 144%
uterus weight ([2]; Example 3, text: Org OD14 (0.15 mg dose per Table IV), placebo 0.054): 0.132 grams per 100 grams body weigh
Uterus weight per 100 grams body weight [2, 6]: 0.132 ±0.013 per 100 grams body weight
Uterus weight per 100 grams body weight [2, 7]: 0.224 ±0.016 per 100 grams body weight
Mean plasma cholesterol exposure [3, 4]: 11.2 ± 1.5 mmol/L/day
Mean plasma cholesterol exposure [3, 5]: 9.0 ± 1.3 mmol/L/day
plasma cholesterol levels (in words) ([3]; Example 2: Org OD14 2 and 6 mg, E2 4 mg orally daily, E2D 150 µg s.c. weekly): strongly reduced the plasma cholesterol levels
Mean plasma cholesterol exposure [3, 6]: 20.7 ± 1.5 mmol/L/day
Mean plasma cholesterol exposure [3, 7]: 12.8 ± 1.2 mmol/L/day
